Measurements from ChEMBL document CHEMBL4339231, “α,γ-Diketocarboxylic Acids and Their Esters Act as Carbonic Anhydrase IX and XII Selective Inhibitors” (ACS Med Chem Lett, 2019).
pIC50, pKi: −log10 of the molar value. The source made the active and inactive calls. The calls are words filed in the database; no cut-off is given here.

Assays:
Carbonic anhydrase 1 = Carbonic anhydrase 1 (Homo sapiens, UniProt P00915); experiment: Inhibition of human carbonic anhydrase 1 incubated for 15 mins by stopped flow CO2 hydrase assay
Carbonic anhydrase 2 = Carbonic anhydrase 2 (Homo sapiens, UniProt P00918); experiment: Inhibition of human carbonic anhydrase 2 incubated for 15 mins by stopped flow CO2 hydrase assay
Carbonic anhydrase 9 = Carbonic anhydrase 9 (Homo sapiens, UniProt Q16790); experiment: Inhibition of human carbonic anhydrase 9 incubated for 15 mins by stopped flow CO2 hydrase assay
MG-63 [1] = experiment: Cytotoxicity in human MG63 cells assessed as reduction in cell viability at 12.5 to 100 uM incubated for 72 hrs by acid phosphatase assay; format: functional, cell-based
HOS [2] = experiment: Cytotoxicity in human HOS cells assessed as reduction in cell viability at 12.5 to 100 uM incubated for 72 hrs by acid phosphatase assay; format: functional, cell-based
MG-63 [3] = experiment: Cytotoxicity in human MG63 cells assessed as reduction in cell viability at 25 uM incubated for 72 hrs by acid phosphatase assay; format: functional
HOS [4] = experiment: Cytotoxicity in human HOS cells assessed as reduction in cell viability at 25 uM incubated for 72 hrs by acid phosphatase assay; format: functional
MG-63 [5] = experiment: Antiproliferative activity against human MG63 cells assessed as reduction in cell viability incubated for 72 hrs by erythrosine B dye vital staining assay; format: functional, cell-based; conditions: MG-63, 72 h
HOS [6] = experiment: Antiproliferative activity against human HOS cells assessed as reduction in cell viability incubated for 72 hrs by erythrosine B dye vital staining assay; format: functional, cell-based
MG-63 [7] = experiment: Induction of apoptosis in human MG63 cells assessed as increase in caspase-3 activation at 25 uM incubated for 72 hrs by Caspase-GloR 3/7 assay; format: functional, cell-based
HOS [8] = experiment: Induction of apoptosis in human HOS cells assessed as increase in caspase-3 activation at 25 uM incubated for 72 hrs by Caspase-GloR 3/7 assay; format: functional, cell-based
MG-63 [9] = experiment: Induction of apoptosis in human MG63 cells assessed as increase in caspase-7 activation at 25 uM incubated for 72 hrs by Caspase-GloR 3/7 assay; format: functional, cell-based
HOS [10] = experiment: Induction of apoptosis in human HOS cells assessed as increase in caspase-7 activation at 25 uM incubated for 72 hrs by Caspase-GloR 3/7 assay; format: functional, cell-based
MG-63 [11] = experiment: Cytotoxicity in human MG63 cells assessed as reduction in cell viability at 50 uM incubated for 72 hrs by acid phosphatase assay; format: functional
HOS [12] = experiment: Cytotoxicity in human HOS cells assessed as reduction in cell viability at 50 uM incubated for 72 hrs by acid phosphatase assay; format: functional
MG-63 [13] = experiment: Induction of apoptosis in human MG63 cells assessed as increase in caspase-3 activation at 50 uM incubated for 72 hrs by Caspase-GloR 3/7 assay; format: functional, cell-based
MG-63 [14] = experiment: Induction of apoptosis in human MG63 cells assessed as increase in caspase-7 activation at 50 uM incubated for 72 hrs by Caspase-GloR 3/7 assay; format: functional, cell-based
HOS [15] = experiment: Induction of apoptosis in human HOS cells assessed as increase in caspase-3 activation at 50 uM incubated for 72 hrs by Caspase-GloR 3/7 assay; format: functional, cell-based
HOS [16] = experiment: Induction of apoptosis in human HOS cells assessed as increase in caspase-7 activation at 50 uM incubated for 72 hrs by Caspase-GloR 3/7 assay; format: functional, cell-based

Chain of Carbonic anhydrase 1 (P00915 whole entry): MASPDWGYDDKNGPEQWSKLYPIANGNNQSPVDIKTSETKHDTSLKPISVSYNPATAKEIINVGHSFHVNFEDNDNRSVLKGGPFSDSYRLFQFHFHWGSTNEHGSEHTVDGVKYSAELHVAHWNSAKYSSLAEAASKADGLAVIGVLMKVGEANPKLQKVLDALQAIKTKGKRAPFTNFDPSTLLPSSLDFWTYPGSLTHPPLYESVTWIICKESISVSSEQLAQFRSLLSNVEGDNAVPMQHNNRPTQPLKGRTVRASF

| SMILES | pKi (Carbonic anhydrase 1) | pKi (Carbonic anhydrase 2) | pKi (Carbonic anhydrase 9) | Activity (MG-63 [1]) | Activity (HOS [2]) | Activity (MG-63 [3]) | Activity (HOS [4]) | pIC50 (MG-63 [5]) | pIC50 (HOS [6]) | Activity (MG-63 [7]) | Activity (HOS [8]) | Activity (MG-63 [9]) | Activity (HOS [10]) | Activity (MG-63 [11]) | Activity (HOS [12]) | Activity (MG-63 [13]) | Activity (MG-63 [14]) | Activity (HOS [15]) | Activity (HOS [16]) |
| --- | --- | --- | --- | --- | --- | --- | --- | --- | --- | --- | --- | --- | --- | --- | --- | --- | --- | --- | --- |
| O=C(/C=C(\O)C(=O)O)/C=C/c1ccc(NC(=O)c2ccccc2)cc1 | < 5.00 | 5.30 | 7.90 | – | – | – | – | – | – | – | – | – | – | – | – | – | – | – | – |
| O=C(/C=C(\O)C(=O)O)/C=C/c1ccc(NC(=O)c2cccc3ccccc23)cc1 | < 5.00 | 5.59 | 7.89 | – | – | – | – | – | – | – | – | – | – | – | – | – | – | – | – |
| CCOC(=O)/C(O)=C/C(=O)/C=C/c1ccc(NC(=O)c2ccccc2)cc1 | 5.13 | < 5.00 | 7.04 | – | – | – | – | – | – | – | – | – | – | – | – | – | – | – | – |
| O=C(/C=C(\O)C(=O)O)/C=C/c1ccc(NC(=O)c2ccc3ccccc3c2)cc1 | 5.05 | 5.68 | 7.95 | inactive | inactive | – | – | – | – | – | – | – | – | – | – | – | – | – | – |
| CCOC(=O)/C(O)=C/C(=O)/C=C/c1ccc(NC(=O)c2cccc3ccccc23)cc1 | < 5.00 | 5.06 | 7.42 | Dose-dependent effect | Dose-dependent effect | 16.4% | 19.7% | 4.83 | 4.81 | inactive | inactive | inactive | inactive | – | – | – | – | – | – |
| CCOC(=O)/C(O)=C/C(=O)/C=C/c1ccc(NC(=O)c2ccc3ccccc3c2)cc1 | 5.21 | 5.02 | 7.90 | Dose-dependent effect | Dose-dependent effect | – | – | 4.34 | 4.72 | – | – | – | – | 50% | 50% | inactive | inactive | inactive | inactive |
